Usually IC50 stands for the concentration at which inhibition is half-maximal. Lower therefore signals greater potency. The melting point is the temperature of the solid-liquid transition.

Where only a bound is given, the exact number is not on record here.

Our source for the IC50 and melting point values is patent US20060004087A1, “Tetracyclic compounds as estrogen ligands” (Wyeth, priority 2004, published 2006).

Data set [1] concerns the target T1, human ERβ (Homo sapiens, UniProt Q92731).
T1 construct: made in house; host or cells: E. coli (crude lysate)
The experiment in a line: Competition with [3H]-17β-estradiol for ERβ ligand binding domain. As to conditions: E. coli lysate expressing ER ligand binding domains (D, E, & F); 2 nM [3H]-17β-estradiol; 5-15 hours at room temperature. Here is the method: (§1) This test procedure provides the methodology for one to determine whether a particular compound binds to the ER (and is therefore, “estrogenic”) and whether there is selectivity for ERα or ERβ. […] The procedure used is described briefly below. A crude lysate of E. coli expressing the ER ligand binding domains (D, E, & F) of human ERα or ERβ was prepared. Both ERs and compounds were diluted in 1× Dulbecco's Phosphate Buffered Saline (DPBS) supplemented with 1 mM EDTA. […] After between 5 and 15 hours at room temperature, the plates were washed with DPBS/1 mM EDTA and bound radioactivity determined by liquid scintillation counting.

In data set [2] the target is T2, human ERα (Homo sapiens, UniProt P03372).
T2 construct: made in house; host or cells: E. coli (crude lysate)
T2 sequence (P03372 311-547 limits assumed): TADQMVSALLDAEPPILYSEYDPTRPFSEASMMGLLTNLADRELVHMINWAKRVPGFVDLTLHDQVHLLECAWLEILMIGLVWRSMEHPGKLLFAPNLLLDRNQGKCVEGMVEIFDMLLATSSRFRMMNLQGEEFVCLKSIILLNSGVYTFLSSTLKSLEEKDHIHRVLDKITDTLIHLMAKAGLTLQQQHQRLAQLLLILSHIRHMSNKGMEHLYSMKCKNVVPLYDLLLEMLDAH
Kind of data set: Competition with [3H]-17β-estradiol for ERα ligand binding domain. As to conditions: E. coli lysate expressing ER ligand binding domains (D, E, & F); 2 nM [3H]-17β-estradiol; 5-15 hours at room temperature. Here is the method: as §1

T1 sequence (Q92731 264-498 limits assumed): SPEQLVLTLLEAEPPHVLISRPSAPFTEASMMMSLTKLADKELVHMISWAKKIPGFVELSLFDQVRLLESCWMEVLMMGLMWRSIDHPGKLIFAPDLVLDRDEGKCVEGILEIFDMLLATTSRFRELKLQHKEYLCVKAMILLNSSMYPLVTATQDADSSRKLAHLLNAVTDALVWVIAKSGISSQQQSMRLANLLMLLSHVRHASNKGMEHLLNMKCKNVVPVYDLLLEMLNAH

Regarding “2,9-DIHYDROXY-5,6-DIHYDRO-BENZO[B]NAPHTHO[2,1-D]FURAN-10-BENZONITRILE [Example 12]”, the IC50 is 0.757 µM in data set [1] and 2.79 µM in data set [2].
Regarding `Oc1ccc2c(c1)CCc1c-2oc2cc(O)ccc12` [Example 1, 5,6-DIHYDRO-BENZO[B]NAPHTHO[2,1-D]FURAN-3,9-DIOL], the values for the IC50 in data set [1] and in data set [2] were 0.003 µM and 0.018 µM, respectively.
Consider `Oc1ccc2c(ccc3c4ccc(O)cc4oc23)c1` [Example 2, BENZO[B]NAPHTHO[2,1-D]FURAN-3,9-DIOL], for which the figures for the IC50 in data set [1] and in data set [2] were 0.001 µM and 0.012 µM, respectively.
Consider `Oc1ccc2c(c1)oc1c3ccc(O)cc3c(Br)cc21` [Example 3, 5-BROMO-BENZO[B]NAPHTHO[2,1-D]FURAN-3,9-DIOL], for which the IC50 in data set [1] was 0.012 µM; in data set [2], 0.07 µM.
`N#Cc1cc(O)cc2c3c(oc12)-c1ccc(O)cc1CC3` [Example 4, 3,8-DIHYDROXY-5,6-DIHYDRO-BENZO[B]NAPHTHO[2,1-D]FURAN-10-CARBONITRILE] displayed a melting point of 355 to 358 °C. Also, in data set [1], the IC50 was found to be 0.0012 µM. In data set [2], this molecule showed an IC50 of 0.15 µM.
Consider `N#Cc1cc(O)cc2c3c(oc12)-c1ccc(O)cc1CCC3` [Example 5, 3,9-DIHYDROXY-6,7-DIHYDRO-5H-12-OXA-DIBENZO[A,E]AZULEN-11-CARBONITRILE], for which the half-maximal inhibitory concentration (IC50) in data set [1] turned out to be 0.017 µM; in data set [2] it was 1.5 µM.
On to `N#Cc1c(O)ccc2c3c(oc12)-c1ccc(O)cc1CC3` [Example 6, 3,9-DIHYDROXY-5,6-DIHYDRO-BENZO[B]NAPHTHO[2,1-D]FURAN-10-CARBONITRILE], for which the melting point was above 300 °C. This molecule registered an IC50 in data set [1] of 0.005 µM. In addition, the IC50 in data set [2] was 0.082 µM.
The matching figures for `N#Cc1c(O)ccc2c1oc1c3ccc(O)cc3ccc21` [Example 7, 3,9-DIHYDROXY-BENZO[B]NAPHTHO[2,1-D]FURAN-10-CARBONITRILE]: above 300 °C, 0.003 µM and 0.055 µM.
On to `Oc1ccc2c(c1)OCc1c-2oc2ccc(O)cc12` [Example 9, 6H-BENZO[4,5]FURO[3,2-C]CHROMEN-3,8-DIOL], for which the IC50 in data set [1] was determined as 0.004 µM; in data set [2] it was 0.129 µM.
The matching figures for `N#Cc1cc(O)cc2c3c(oc12)-c1ccc(O)cc1OC3` [Example 10, 3,8-DIHYDROXY-6H-BENZO[4,5]FURO[3,2-C]CHROMENE-10-CARBONITRILE]: 0.002 µM and 0.159 µM.
`Oc1ccc2c(c1)OCc1c-2oc2c(Br)cc(O)cc12` [Example 11, 10-BROMO-6H-BENZO[4,5]FURO[3,2-C]CHROMENE-3,8-DIOL]: the figures for the IC50 in data set [1] and in data set [2] were 0.001 µM and 0.042 µM, respectively.
Turning to `N#Cc1c(O)ccc2c1oc1c3cc(O)ccc3ccc21` [Example 13, 2,9-DIHYDROXY-BENZO[B]NAPHTHO[2,1-D]FURAN-10-CARBONITRILE], the melting point fell in the range of 291 to 295 °C.
